# Source: PubChem BioAssay AID248 (DTP/NCI, 2004)
# “And” between values parts separate entries of the source, which are not always exact repeats. Identical values can stand only once. Inconclusive results and toxic doses are left out.
# Test system: L1210 leukemia ip in BDF1 mice, survival T/C
# Assay: NCI In Vivo Anticancer Drug Screen. Data for tumor model L1210 Leukemia (intraperitoneal) in B6D2F1 (BDF1) mice
# Conditions: endpoint: mean survival time, higher = longer survival
# In short: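 Value reflects the ratio of survival in compound-treated mice to survival in vehicle-treated controls, with both groups carrying the same transplanted tumor.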
# [1] = dose: 12.5 mg/kg/injection, schedule: Q04DX003 (ip), vehicle: saline
# [2] = dose: 25.0 mg/kg/injection, schedule: Q01DX009 (ip), vehicle: saline
# [3] = dose: 25.0 mg/kg/injection, schedule: Q04DX003 (ip), vehicle: saline
# [4] = dose: 50.0 mg/kg/injection, schedule: Q01DX009 (ip), vehicle: saline
# [5] = dose: 100.0 mg/kg/injection, schedule: Q01DX001 (ip), vehicle: saline
# [6] = dose: 50.0 mg/kg/injection, schedule: Q04DX003 (ip), vehicle: saline
# [7] = dose: 200.0 mg/kg/injection, schedule: Q01DX001 (ip), vehicle: saline
# [8] = dose: 400.0 mg/kg/injection, schedule: Q01DX001 (ip), vehicle: saline
# [9] = dose: 100.0 mg/kg/injection, schedule: Q01DX001 (ip), vehicle: other
# [10] = dose: 200.0 mg/kg/injection, schedule: Q01DX001 (ip), vehicle: other
# [11] = dose: 400.0 mg/kg/injection, schedule: Q01DX001 (ip), vehicle: other
# [12] = dose: 100.0 mg/kg/injection, schedule: Q04DX003 (ip), vehicle: Klucel (hydroxypropylcellulose) (HPC)
# [13] = dose: 200.0 mg/kg/injection, schedule: Q04DX003 (ip), vehicle: Klucel (hydroxypropylcellulose) (HPC)
# [14] = dose: 400.0 mg/kg/injection, schedule: Q04DX003 (ip), vehicle: Klucel (hydroxypropylcellulose) (HPC)
structure (smiles),measurement,setting,value
CS(=O)(=O)CCN(N=O)C(=N)N[N+](=O)[O-],T/C,"dose: 5.1 mg/kg/injection, schedule: Q01DX Z (ip), vehicle: carboxymethylcellulose (CMC)",116 % of control
same,T/C,"dose: 7.7 mg/kg/injection, schedule: Q01DX Z (ip), vehicle: carboxymethylcellulose (CMC)",116 % of control
same,T/C,"dose: 8.8 mg/kg/injection, schedule: Q01DX Z (ip), vehicle: methylcellulose (MC)",121 % of control
same,T/C,"dose: 11.7 mg/kg/injection, schedule: Q01DX Z (ip), vehicle: carboxymethylcellulose (CMC)",116 % of control
same,T/C,"dose: 12.0 mg/kg/injection, schedule: Q01DX Z (sc), vehicle: carboxymethylcellulose (CMC)",101 % of control
same,T/C,"dose: 17.7 mg/kg/injection, schedule: Q01DX Z (ip), vehicle: carboxymethylcellulose (CMC)",123 % of control
same,T/C,"dose: 20.0 mg/kg/injection, schedule: Q01DX Z (ip), vehicle: methylcellulose (MC)",117 % of control
same,T/C,"dose: 24.0 mg/kg/injection, schedule: Q01DX Z (sc), vehicle: carboxymethylcellulose (CMC)",117 % of control
same,T/C,"dose: 40.0 mg/kg/injection, schedule: Q01DX Z (ip), vehicle: carboxymethylcellulose (CMC)",155 % of control
same,T/C,"dose: 45.0 mg/kg/injection, schedule: Q01DX Z (oral), vehicle: carboxymethylcellulose (CMC)",106 % of control
same,T/C,"dose: 48.0 mg/kg/injection, schedule: Q01DX Z (sc), vehicle: carboxymethylcellulose (CMC)",101 % of control
same,T/C,"dose: 60.0 mg/kg/injection, schedule: Q01DX Z (ip), vehicle: carboxymethylcellulose (CMC)",150 % of control
same,T/C,"dose: 60.0 mg/kg/injection, schedule: Q01DX Z (ip), vehicle: methylcellulose (MC)",168 % of control
same,T/C,"dose: 90.0 mg/kg/injection, schedule: Q01DX Z (ip), vehicle: methylcellulose (MC)",122 % of control
same,T/C,"dose: 90.0 mg/kg/injection, schedule: Q01DX Z (oral), vehicle: carboxymethylcellulose (CMC)",105 % of control
same,T/C,"dose: 96.0 mg/kg/injection, schedule: Q01DX Z (sc), vehicle: carboxymethylcellulose (CMC)",112 % of control
same,T/C,"dose: 135.0 mg/kg/injection, schedule: Q01DX Z (ip), vehicle: methylcellulose (MC)",119 % of control
same,T/C,"dose: 180.0 mg/kg/injection, schedule: Q01DX Z (oral), vehicle: carboxymethylcellulose (CMC)",118 % of control
same,T/C,"dose: 360.0 mg/kg/injection, schedule: Q01DX Z (oral), vehicle: carboxymethylcellulose (CMC)",114 % of control
CNCC(O)c1cccc(O)c1 (stereo not drawn),T/C,"dose: 1.56 mg/kg/injection, schedule: Q01DX009 (ip), vehicle: saline",94 % of control
same,T/C,"dose: 3.12 mg/kg/injection, schedule: Q01DX009 (ip), vehicle: saline",98 % of control
same,T/C,"dose: 3.12 mg/kg/injection, schedule: Q04DX003 (ip), vehicle: saline",109 % of control
same,T/C,"dose: 6.25 mg/kg/injection, schedule: Q01DX009 (ip), vehicle: saline",94 % of control
same,T/C,"dose: 6.25 mg/kg/injection, schedule: Q04DX003 (ip), vehicle: saline",104 % of control
same,T/C,"dose: 12.5 mg/kg/injection, schedule: Q01DX009 (ip), vehicle: saline",122 % of control
same,T/C,[1],96 % of control
same,T/C,[2],100 % of control
same,T/C,[3],113 % of control
CCCCNC(C)(C)CCl,T/C,[2],103 % of control
same,T/C,"dose: 25.0 mg/kg/injection, schedule: Q04DX003 (ip), vehicle: water",110 % of control
same,T/C,[4],102 % of control
same,T/C,"dose: 50.0 mg/kg/injection, schedule: Q01DX009 (ip), vehicle: water",91 % of control
same,T/C,"dose: 50.0 mg/kg/injection, schedule: Q04DX003 (ip), vehicle: water",116 % of control
same,T/C,[5],104 % of control
same,T/C,"dose: 100.0 mg/kg/injection, schedule: Q04DX003 (ip), vehicle: water",98 % of control and 102 % of control
CN(C)c1ccc(/C=N\NC(=S)Nc2ccccc2)c(Cl)c1,T/C,"dose: 12.5 mg/kg/injection, schedule: Q01DX009 (ip), vehicle: saline with Tween-80",89 % of control
same,T/C,[1],98 % of control
same,T/C,"dose: 25.0 mg/kg/injection, schedule: Q01DX009 (ip), vehicle: saline with Tween-80",91 % of control
same,T/C,[3],102 % of control
same,T/C,"dose: 50.0 mg/kg/injection, schedule: Q01DX009 (ip), vehicle: saline with Tween-80",97 % of control
same,T/C,[6],95 % of control
same,T/C,"dose: 75.0 mg/kg/injection, schedule: Q01DX009 (ip), vehicle: saline with Tween-80",101 % of control
same,T/C,[5],87 % of control
same,T/C,"dose: 115.0 mg/kg/injection, schedule: Q01DX009 (ip), vehicle: saline with Tween-80",98 % of control
same,T/C,"dose: 170.0 mg/kg/injection, schedule: Q01DX009 (ip), vehicle: saline with Tween-80",92 % of control
same,T/C,[7],95 % of control
same,T/C,[8],92 % of control
NC1CCCCC1Cl (stereo not drawn),T/C,[5],98 % of control
same,T/C,[7],96 % of control
same,T/C,[8],98 % of control
O=C(O)C(c1ccccc1)P(=S)(c1ccccc1)c1ccccc1 (stereo not drawn),T/C,"dose: 75.0 mg/kg/injection, schedule: Q01DX001 (ip), vehicle: other",89 % of control
same,T/C,"dose: 150.0 mg/kg/injection, schedule: Q01DX001 (ip), vehicle: other",111 % of control
NC1CC1c1ccccc1 (stereo not drawn),T/C,[1],98 % of control and 93 % of control
same,T/C,[2],97 % of control
same,T/C,[3],96 % of control and 100 % of control and 92 % of control
same,T/C,[4],105 % of control
same,T/C,[6],96 % of control and 95 % of control and 100 % of control
same,T/C,"dose: 100.0 mg/kg/injection, schedule: Q01DX009 (ip), vehicle: saline",105 % of control
same,T/C,"dose: 100.0 mg/kg/injection, schedule: Q04DX003 (ip), vehicle: saline",86 % of control and 103 % of control
O=C(C#Cc1ccccc1)OCC#Cc1ccccc1,T/C,[5],102 % of control
same,T/C,[7],96 % of control
same,T/C,[8],94 % of control
Nc1ccnn2nnnc12,T/C,[5],97 % of control
same,T/C,[7],91 % of control
same,T/C,[8],97 % of control
O=C(Nc1ccc(C(=O)c2ccccc2)cc1)c1ccc(C(=O)Nc2ccc(C(=O)c3ccccc3)cc2)cc1,T/C,[9],93 % of control
same,T/C,[10],86 % of control
same,T/C,[11],89 % of control
Cc1ccc(/C=N/N=C(N)N)cc1,T/C,"dose: 15.0 mg/kg/injection, schedule: Q01DX Z (ip), vehicle: saline",104 % of control
same,T/C,"dose: 30.0 mg/kg/injection, schedule: Q01DX Z (ip), vehicle: saline",98 % of control
same,T/C,"dose: 30.0 mg/kg/injection, schedule: Q01DX Z (oral), vehicle: saline",99 % of control
same,T/C,"dose: 60.0 mg/kg/injection, schedule: Q01DX Z (ip), vehicle: saline",96 % of control
same,T/C,"dose: 60.0 mg/kg/injection, schedule: Q01DX Z (oral), vehicle: saline",94 % of control
same,T/C,"dose: 120.0 mg/kg/injection, schedule: Q01DX Z (oral), vehicle: saline",97 % of control
same,T/C,"dose: 240.0 mg/kg/injection, schedule: Q01DX Z (oral), vehicle: saline",100 % of control
C[Si](C)(C#CC1(O)CCCCC1)CCl,T/C,[12],107 % of control
same,T/C,[13],106 % of control
same,T/C,[14],103 % of control
Cc1cc(Br)c2c(c1O)C13CCN(C)C(C2)C1CC(Br)C(=O)C3 (stereo not drawn),T/C,"dose: 1.56 mg/kg/injection, schedule: Q01DX001 (ip), vehicle: saline",97 % of control
same,T/C,"dose: 3.12 mg/kg/injection, schedule: Q01DX001 (ip), vehicle: saline",100 % of control
same,T/C,"dose: 6.25 mg/kg/injection, schedule: Q01DX001 (ip), vehicle: saline",105 % of control
same,T/C,"dose: 12.5 mg/kg/injection, schedule: Q01DX001 (ip), vehicle: saline",108 % of control
O=C(N/N=C/C=C/c1ccccc1)c1ccco1,T/C,[9],87 % of control
same,T/C,[10],87 % of control
same,T/C,[11],93 % of control
CON(C)S(=O)c1ccc([N+](=O)[O-])cc1 (stereo not drawn),T/C,[12],100 % of control
same,T/C,[13],97 % of control
same,T/C,[14],94 % of control
